According to ChEMBL document CHEMBL6153141, “Design, Synthesis, and Mechanism Study of Novel BMX Inhibitors Based on the Core of 1,3,5-Triazin-2-Amine for the Treatment of Gastric Carcinoma” (J Med Chem, 2025):
Calls of active or inactive are those of the source. The rule behind the calls is not given here.

Legend:
HGC-27 [1] = assay: Antitumor activity against human HGC-27 cells xenografted in female BALB/c nude mouse model assessed as reduction in tumor volume at 30 mg/kg/day, ip administered for 21 days; assay type: functional, organism-based; conditions: time 21.0 day
HGC-27 [2] = assay: Anticancer activity against human HGC-27 cells assessed as inhibition of cell proliferation incubated for 72 hrs by MTT assay; assay type: functional, cell-based; conditions: HGC-27, 72 h
AGS = assay: Anticancer activity against human AGS cells assessed as inhibition of cell proliferation incubated for 72 hrs by MTT assay; assay type: functional, cell-based
MDA-MB-231 = assay: Anticancer activity against human MDA-MB-231 cells assessed as inhibition of cell proliferation incubated for 72 hrs by MTT assay; assay type: functional, cell-based; conditions: MDA-MB-231, 72 h
MCF7 = assay: Anticancer activity against human MCF7 cells assessed as inhibition of cell proliferation incubated for 72 hrs by MTT assay; assay type: functional, cell-based; conditions: MCF7, 72 h
C6661 = assay: Anticancer activity against human C666-1 cells assessed as inhibition of cell proliferation incubated for 72 hrs by MTT assay; assay type: functional, cell-based; conditions: C6661, 72 h
HCT-116 = assay: Anticancer activity against human HCT-116 cells assessed as inhibition of cell proliferation incubated for 72 hrs by MTT assay; assay type: functional, cell-based; conditions: HCT-116, 72 h
HepG2 = assay: Anticancer activity against human HepG2 cells assessed as inhibition of cell proliferation incubated for 72 hrs by MTT assay; assay type: functional, cell-based; conditions: HepG2, 72 h
MGC-803 [3] = assay: Antiproliferative activity against human MGC-803 cells assessed as inhibition of cell viability incubated for 24 to 72 hrs by MTT assay; assay type: functional, cell-based; conditions: dose <= 50.0 µM, time 24-72 hrs
HGC-27 [4] = assay: Antiproliferative activity against human HGC-27 cells assessed as inhibition of cell viability upto 50 uM by MTT assay; assay type: functional, cell-based; conditions: time 24-72 hrs
MGC-803 [5] = assay: Antiproliferative activity against human MGC-803 cells assessed as inhibition of cell viability upto 50 uM by MTT assay; assay type: functional, cell-based; conditions: time 24-72 hrs
MGC-803 [6] = assay: Inhibition of colony formation in human MGC-803 cells assessed as decrease in clonogenic ability at 2.5 to 10 uM incubated for 48 hrs by crystal violet staining based analysis; assay type: functional, cell-based; conditions: dose 2.5-10 µM
MGC-803 [7] = assay: Antiproliferative activity against human MGC-803 cells assessed as reduction in number of EdU-positive cells incubated for 48 hrs by confocal laser scanning microscopic analysis; assay type: functional, cell-based; conditions: dose 5-15 µM
HGC-27 [8] = assay: Anti-invasive activity in human HGC-27 cells assessed as decrease in invasion ability at 5 to 15 uM incubated for 48 hrs by transwell assay; assay type: functional, cell-based; conditions: dose 5-15 µM
MGC-803 [9] = assay: Anti-invasive activity in human MGC-803 cells assessed as decrease in invasion ability at 10 to 20 uM incubated for 48 hrs by transwell assay; assay type: functional, cell-based; conditions: dose 10-20 µM
HGC-27 [10] = assay: Induction of apoptosis in human HGC-27 cells assessed as increase in cleaved caspase 9 level incubated for 48 hrs by Western blot analysis; assay type: functional, cell-based; conditions: dose 5-15 µM
HGC-27 [11] = assay: Induction of apoptosis in human HGC-27 cells assessed as increase in cleaved caspase 3 level incubated for 48 hrs by Western blot analysis; assay type: functional, cell-based; conditions: dose 5-15 µM
MGC-803 [12] = assay: Induction of apoptosis in human MGC-803 cells assessed as increase in cleaved PARP level incubated for 48 hrs by Western blot analysis; assay type: functional, cell-based; conditions: dose 10-20 µM
MGC-803 [13] = assay: Induction of apoptosis in human MGC-803 cells assessed as increase in cleaved caspase 9 level incubated for 48 hrs by Western blot analysis; assay type: functional, cell-based; conditions: dose 10-20 µM
MGC-803 [14] = assay: Induction of apoptosis in human MGC-803 cells assessed as increase in cleaved caspase 3 level incubated for 48 hrs by Western blot analysis; assay type: functional, cell-based; conditions: dose 10-20 µM
MGC-803 [15] = assay: Cell cycle arrest in human MGC-803 cells assessed as accumulation of cells at G1 phase at 10 to 20 uM incubated for 48 hrs by flow cytometric analysis; assay type: functional, cell-based; conditions: dose 10-20 µM
HGC-27 [16] = assay: Induction of autophagy in human HGC-27 cells assessed as increase in LC3B protein expression incubated for 48 hrs by Western blot analysis; assay type: functional, cell-based; conditions: dose 5-15 µM
MGC-803 [17] = assay: Induction of autophagy in human MGC-803 cells assessed as increase in LC3B protein expression incubated for 48 hrs by Western blot analysis; assay type: functional, cell-based; conditions: dose 10-20 µM
MGC-803 [18] = assay: Induction of autophagy in human MGC-803 cells assessed as decrease in p62 protein expression incubated for 48 hrs by Western blot analysis; assay type: functional, cell-based; conditions: dose 10-20 µM
HGC-27 [19] = assay: Induction of apoptosis in LC3B knockout human HGC-27 cells assessed as increase in cleaved caspase 9 level at 15 uM by Western blot analysis; assay type: functional, cell-based
MGC-803 [20] = assay: Induction of apoptosis in LC3B knockout human MGC-803 cells assessed as increase in cleaved PARP level at 20 uM by Western blot analysis; assay type: functional, cell-based
MGC-803 [21] = assay: Induction of apoptosis in LC3B knockout human MGC-803 cells assessed as increase in cleaved caspase 9 level at 20 uM by Western blot analysis; assay type: functional, cell-based
MGC-803 [22] = assay: Downregulation of BMX protein expression in human MGC-803 cells incubated for 48 hrs by Western blot analysis; assay type: functional, cell-based; conditions: dose 10-20 µM
[23] = target: Cytoplasmic tyrosine-protein kinase BMX (Homo sapiens) (UniProt P51813); assay: Irreversible inhibition of BMX in human HGC-27 cells at 15 uM preincubated for 48 hrs followed by compound washout and measured within 6 hrs by Western blot analysis; assay type: cell-based
Sequence of Cytoplasmic tyrosine-protein kinase BMX (Homo sapiens) (P51813 whole entry): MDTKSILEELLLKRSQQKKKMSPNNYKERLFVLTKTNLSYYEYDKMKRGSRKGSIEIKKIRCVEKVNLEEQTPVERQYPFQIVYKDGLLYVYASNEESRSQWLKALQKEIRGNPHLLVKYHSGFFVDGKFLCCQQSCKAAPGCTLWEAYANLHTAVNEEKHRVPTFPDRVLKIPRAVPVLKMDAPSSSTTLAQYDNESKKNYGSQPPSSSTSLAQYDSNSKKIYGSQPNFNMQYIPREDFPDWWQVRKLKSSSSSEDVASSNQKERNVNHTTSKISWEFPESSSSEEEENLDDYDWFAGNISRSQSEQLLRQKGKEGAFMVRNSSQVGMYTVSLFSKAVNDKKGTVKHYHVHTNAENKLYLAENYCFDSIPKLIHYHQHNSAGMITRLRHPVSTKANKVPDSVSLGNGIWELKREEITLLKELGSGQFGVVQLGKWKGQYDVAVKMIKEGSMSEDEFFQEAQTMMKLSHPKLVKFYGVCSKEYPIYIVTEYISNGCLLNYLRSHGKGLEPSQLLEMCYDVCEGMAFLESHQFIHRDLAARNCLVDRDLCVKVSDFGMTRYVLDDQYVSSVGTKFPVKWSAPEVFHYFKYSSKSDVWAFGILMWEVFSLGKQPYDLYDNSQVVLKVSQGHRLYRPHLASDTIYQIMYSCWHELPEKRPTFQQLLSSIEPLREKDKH

[24] = target: Tyrosine-protein kinase BTK (Homo sapiens, UniProt Q06187); assay: Inhibition of BTK (unknown origin) in presence of ATP at Km concentration
Sequence of Tyrosine-protein kinase BTK (Q06187 whole entry): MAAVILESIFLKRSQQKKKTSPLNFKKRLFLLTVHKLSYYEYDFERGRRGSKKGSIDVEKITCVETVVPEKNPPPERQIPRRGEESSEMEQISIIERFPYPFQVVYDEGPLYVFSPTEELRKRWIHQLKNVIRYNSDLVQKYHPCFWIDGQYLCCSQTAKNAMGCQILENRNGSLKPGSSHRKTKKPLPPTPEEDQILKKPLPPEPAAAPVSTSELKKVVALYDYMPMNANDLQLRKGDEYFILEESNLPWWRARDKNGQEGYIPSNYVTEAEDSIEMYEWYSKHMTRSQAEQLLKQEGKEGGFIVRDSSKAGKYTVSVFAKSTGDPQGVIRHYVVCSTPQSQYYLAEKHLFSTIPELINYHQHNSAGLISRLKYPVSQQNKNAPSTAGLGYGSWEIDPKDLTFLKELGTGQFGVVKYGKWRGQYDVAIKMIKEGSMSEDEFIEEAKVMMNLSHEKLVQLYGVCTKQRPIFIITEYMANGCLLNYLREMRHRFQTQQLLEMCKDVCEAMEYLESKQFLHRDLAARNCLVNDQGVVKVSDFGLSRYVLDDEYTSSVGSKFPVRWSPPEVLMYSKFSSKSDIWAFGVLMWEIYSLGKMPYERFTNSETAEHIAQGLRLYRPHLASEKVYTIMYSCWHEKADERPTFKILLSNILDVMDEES

[25] = target: Tyrosine-protein kinase JAK3 (Homo sapiens, UniProt P52333); assay: Inhibition of JAK3 (unknown origin) in presence of ATP at Km concentration
Sequence of Tyrosine-protein kinase JAK3 (P52333 whole entry): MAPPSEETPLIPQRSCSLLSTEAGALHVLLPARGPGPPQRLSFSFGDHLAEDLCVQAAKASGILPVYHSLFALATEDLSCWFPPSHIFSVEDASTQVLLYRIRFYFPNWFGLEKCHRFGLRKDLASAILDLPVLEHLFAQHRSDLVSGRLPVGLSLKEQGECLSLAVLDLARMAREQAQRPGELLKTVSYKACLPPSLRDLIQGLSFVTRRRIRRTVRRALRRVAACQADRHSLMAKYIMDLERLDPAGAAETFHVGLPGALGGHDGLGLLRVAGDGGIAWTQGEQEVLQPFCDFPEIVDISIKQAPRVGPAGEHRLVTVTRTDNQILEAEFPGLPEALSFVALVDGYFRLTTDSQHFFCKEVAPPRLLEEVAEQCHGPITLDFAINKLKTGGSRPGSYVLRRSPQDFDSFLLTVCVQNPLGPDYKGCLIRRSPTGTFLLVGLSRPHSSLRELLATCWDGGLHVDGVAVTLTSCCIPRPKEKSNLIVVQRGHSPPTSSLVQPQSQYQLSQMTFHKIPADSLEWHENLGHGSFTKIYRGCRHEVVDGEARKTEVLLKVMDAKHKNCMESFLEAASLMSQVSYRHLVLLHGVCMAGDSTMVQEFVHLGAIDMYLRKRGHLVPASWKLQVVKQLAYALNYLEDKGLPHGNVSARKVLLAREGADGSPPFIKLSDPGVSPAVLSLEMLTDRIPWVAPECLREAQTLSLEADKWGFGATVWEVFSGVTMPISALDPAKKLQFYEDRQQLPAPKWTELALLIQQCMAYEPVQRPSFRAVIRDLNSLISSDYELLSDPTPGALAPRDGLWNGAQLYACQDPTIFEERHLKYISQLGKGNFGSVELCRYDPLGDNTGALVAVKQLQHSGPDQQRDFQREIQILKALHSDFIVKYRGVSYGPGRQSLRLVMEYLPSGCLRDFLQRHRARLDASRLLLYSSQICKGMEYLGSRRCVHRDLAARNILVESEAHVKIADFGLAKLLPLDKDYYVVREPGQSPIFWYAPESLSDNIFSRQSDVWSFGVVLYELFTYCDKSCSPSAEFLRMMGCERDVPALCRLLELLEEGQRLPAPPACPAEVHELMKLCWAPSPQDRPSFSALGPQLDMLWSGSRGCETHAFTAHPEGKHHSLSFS

[26] = target: Epidermal growth factor receptor (Homo sapiens, UniProt P00533, T790M); assay: Inhibition of EGFR T790M (unknown origin) in presence of ATP at Km concentration
Sequence of Epidermal growth factor receptor (P00533 25-1210 T790M limits assumed): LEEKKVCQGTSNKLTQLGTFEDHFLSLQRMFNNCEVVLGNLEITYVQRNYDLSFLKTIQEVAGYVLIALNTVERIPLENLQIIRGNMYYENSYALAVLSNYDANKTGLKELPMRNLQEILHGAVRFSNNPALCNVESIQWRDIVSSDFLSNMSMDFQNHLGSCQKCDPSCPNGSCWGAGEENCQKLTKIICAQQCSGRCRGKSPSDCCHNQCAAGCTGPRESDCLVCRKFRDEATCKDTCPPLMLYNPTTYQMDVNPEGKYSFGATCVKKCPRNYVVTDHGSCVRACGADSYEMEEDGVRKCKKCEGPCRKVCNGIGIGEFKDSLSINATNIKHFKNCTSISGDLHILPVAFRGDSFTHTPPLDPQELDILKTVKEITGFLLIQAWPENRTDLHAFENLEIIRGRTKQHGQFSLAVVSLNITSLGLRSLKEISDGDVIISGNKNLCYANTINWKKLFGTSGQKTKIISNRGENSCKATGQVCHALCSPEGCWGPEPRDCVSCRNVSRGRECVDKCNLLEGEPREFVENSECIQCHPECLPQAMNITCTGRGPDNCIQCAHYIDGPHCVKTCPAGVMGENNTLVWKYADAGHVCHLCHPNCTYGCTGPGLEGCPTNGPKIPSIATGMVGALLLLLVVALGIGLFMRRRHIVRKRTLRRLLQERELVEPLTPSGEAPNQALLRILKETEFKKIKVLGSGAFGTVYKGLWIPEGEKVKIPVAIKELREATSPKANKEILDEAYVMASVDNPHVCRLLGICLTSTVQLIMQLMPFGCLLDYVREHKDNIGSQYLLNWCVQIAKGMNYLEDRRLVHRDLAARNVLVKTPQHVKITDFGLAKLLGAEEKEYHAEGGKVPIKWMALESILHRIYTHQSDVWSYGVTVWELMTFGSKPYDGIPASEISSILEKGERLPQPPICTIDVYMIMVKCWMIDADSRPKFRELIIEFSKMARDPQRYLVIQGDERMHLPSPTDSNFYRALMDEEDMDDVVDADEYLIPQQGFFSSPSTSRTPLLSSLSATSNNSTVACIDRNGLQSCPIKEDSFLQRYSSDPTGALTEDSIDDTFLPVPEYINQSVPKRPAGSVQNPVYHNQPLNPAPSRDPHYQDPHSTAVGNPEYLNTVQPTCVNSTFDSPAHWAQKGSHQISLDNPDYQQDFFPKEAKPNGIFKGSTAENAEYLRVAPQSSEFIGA

[27] = Cmax in Sprague-Dawley rat at 5 mg/kg, po or 5 mg/kg, iv measured after 24 hrs by LC-MS/MS analysis; assay type: ADME, organism-based; conditions: in vivo
[28] = Metabolic stability in rat liver microsomes assessed as intrinsic clearance at 100 uM measured upto 60 mins in presence of NADPH by LC-MS/MS analysis; assay type: ADME, Microsome; conditions: read-out: CLH
HGC-27 [29] = assay: Antitumor activity against human HGC-27 cells xenografted in female BALB/c nude mouse model assessed as reduction in tumor growth at 30 mg/kg/day, ip administered for 21 days relative to control; assay type: functional; parameters: scale not given: the % may be the effect or the level left; conditions: time 21 day
[30] = Toxicity in female BALB/c nude mouse model xenografted with human HGC-27 cells assessed as effect on lung at 30 mg/kg, ip administered for 21 days by H and E staining based analysis; assay type: organism-based; conditions: in vivo, 504 h, time 21 day
PC-9 = assay: cells; conditions: Homo sapiens, PC-9, 72 h
Description: Anticancer activity against human PC-9 cells assessed as inhibition of cell proliferation incubated for 72 hrs by MTT assay

NCI-H1975 = assay: cells; conditions: Homo sapiens, NCI-H1975, 72 h
Description: Anticancer activity against human NCI-H1975 cells assessed as inhibition of cell proliferation incubated for 72 hrs by MTT assay

NCI-H460 = assay: cells; conditions: Homo sapiens, NCI-H460, 72 h
Description: Anticancer activity against human NCI-H460 cells assessed as inhibition of cell proliferation incubated for 72 hrs by MTT assay

PC-3 = assay: cells; conditions: Homo sapiens, PC-3, 72 h
Description: Anticancer activity against human PC-3 cells assessed as inhibition of cell proliferation incubated for 72 hrs by MTT assay

HGC-27 [31] = assay: cells; conditions: Homo sapiens, HGC-27, 48 h
Description: Antiproliferative activity against human HGC-27 cells assessed as inhibition of cell viability incubated for 48 hrs by MTT assay

In the case of `C=CS(=O)(=O)N1CCC[C@@H](Nc2nc(N)nc(Nc3cccc(Oc4ccccc4)c3)n2)C1`, the Activity (HGC-27 [1]) is reported as “Active”, the IC50 (HGC-27 [2]) is reported as 9.6 µM and the IC50 (AGS) is reported as 8 µM. It also gave an IC50 (MDA-MB-231) of 19.7 µM, an IC50 (MCF7) of 8.3 µM and an IC50 (C6661) of 14.9 µM. For the same compound, the IC50 (HCT-116) was 15.9 µM, the IC50 (HepG2) was > 32 µM and the Activity (MGC-803 [3]) was “Dose-dependent-effect”. The Activity (HGC-27 [4]) was “Time-dependent-effect”, the Activity (MGC-803 [5]) was “Time-dependent-effect” and the inhibition (MGC-803 [6]) was “Active”. The Activity (MGC-803 [7]) was “Dose-dependent-effect”, the Activity (HGC-27 [8]) was “Active” and the Activity (MGC-803 [9]) was “Active”. The Activity (HGC-27 [10]) was “Dose-dependent-effect”, the Activity (HGC-27 [11]) was “Dose-dependent-effect” and the Activity (MGC-803 [12]) was “Dose-dependent-effect”. For the same compound, the Activity (MGC-803 [13]) was “Dose-dependent-effect”, the Activity (MGC-803 [14]) was “Dose-dependent-effect” and the Activity (MGC-803 [15]) was “Active”. For the same compound, the Activity (HGC-27 [16]) was “Dose-dependent-effect”, the Activity (MGC-803 [17]) was “Dose-dependent-effect” and the Activity (MGC-803 [18]) was “Dose-dependent-effect”. The Activity (HGC-27 [19]) was “Active”, the Activity (MGC-803 [20]) was “Active” and the Activity (MGC-803 [21]) was “Active”. The Activity (MGC-803 [22]) was “Dose-dependent-effect”, the inhibition [23] was “Active” and the IC50 [24] was 0.187 µM. The IC50 [25] was 0.437 µM, the IC50 [26] was 0.177 µM and the Cmax [27] was 73.5 ng/mL. The microsomal CLint at 100 µM [28] was 304 µL/min/mg, the Activity (HGC-27 [29]) was 49.93% and the Activity [30] was “Non-toxic”. The IC50 (PC-9) was 23.3 µM, the IC50 (NCI-H1975) was 5 µM and the IC50 (NCI-H460) was 16.7 µM. The IC50 (PC-3) was 17.2 µM and the IC50 (HGC-27 [31]) was 10.5 µM.
